The results in this text go back to PMC4591937 (Science translational medicine, 2015).

The term IC50 denotes the concentration at which inhibition is half-maximal. For orientation: solubility means the dissolved amount per volume that the medium holds. The half-life is the time needed for the level to fall by half in the phase considered. Higher therefore signals slow decline.

A short description of series [1]: Drug distribution / pharmacokinetics in OVX rats. It counts as in vivo, rat.
Series [2] relates to lipid peroxidation. Nature of the series: Inhibition of lipid peroxidation, thiobarbituric acid reactive substances. It counts as biochemical. Conditions: average ± SEM, n = 3.
The next series has as its system ERα in MCF-7Ca cells. As to the kind of experiment: ERα transactivation in MCF-7Ca breast cancer cells. It counts as cell-based, human. Conditions: cultured MCF-7Ca cells, 1 nM.
Series [3] has as its system ERE-luciferase reporter under transcriptional control of ERs. Nature of the series: Bioluminescence imaging in OVX repTOP ERE-Luc mice. It is filed as in vivo, mouse. Particulars: DHED s.c. or p.o. ≥200 μg/kg; E2 s.c. 20 μg/kg.
Series [4] is described as follows: Binding to human plasma proteins by rapid equilibrium dialysis. It counts as in vitro ADME. (In general: Equilibrium dialysis compares concentrations on both sides of a semipermeable membrane.)
In series [5] the test system is lipid peroxidation. Nature of the series: Inhibition of lipid peroxidation, ferric thiocyanate. It is filed as biochemical. Particulars: average ± SEM, n = 3.
The next series deals with uterus of OVX rodents. It is filed as in vivo. Particulars: for Vaginal smear cytology during and after treatment: OVX rats.
In a further series the test system is OVX Sprague-Dawley rats. As to the kind of experiment: Transient middle cerebral artery occlusion. It counts as in vivo, rat.
Another series has as its target T1, ERα (Homo sapiens, UniProt P03372).
T1 sequence (P03372 1-595): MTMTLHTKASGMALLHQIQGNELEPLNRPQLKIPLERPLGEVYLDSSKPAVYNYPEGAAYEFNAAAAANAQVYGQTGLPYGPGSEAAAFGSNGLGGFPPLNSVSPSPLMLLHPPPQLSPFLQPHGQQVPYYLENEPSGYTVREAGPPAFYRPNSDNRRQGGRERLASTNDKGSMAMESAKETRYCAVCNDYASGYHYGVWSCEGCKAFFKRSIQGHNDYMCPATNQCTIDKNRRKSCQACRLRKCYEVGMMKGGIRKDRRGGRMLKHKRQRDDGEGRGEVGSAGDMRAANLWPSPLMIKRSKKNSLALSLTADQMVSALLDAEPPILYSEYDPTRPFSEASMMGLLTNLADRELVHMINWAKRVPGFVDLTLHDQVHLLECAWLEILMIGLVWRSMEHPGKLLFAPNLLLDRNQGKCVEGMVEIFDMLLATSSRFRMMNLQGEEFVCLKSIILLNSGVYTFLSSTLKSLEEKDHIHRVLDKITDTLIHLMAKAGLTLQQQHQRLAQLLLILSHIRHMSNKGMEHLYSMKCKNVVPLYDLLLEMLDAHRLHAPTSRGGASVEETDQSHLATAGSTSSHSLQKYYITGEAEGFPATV
As to the kind of experiment: Estrogen receptor. It counts as binding.

The next series concerns OVX rat brain. As to the kind of experiment: Markers of estrogenic effects in the brain. It counts as in vivo. Conditions: for Progesterone receptor (PR) expression in the preoptic area of the hypothalamus: OVX Sprague-Dawley rats, DHED s.c. 50 μg/kg, ICI 182,780 s.c. 1 mg/kg 1 h before DHED.
A further series relates to OVX rat. As to the kind of experiment: OVX rat hot flush model. It counts as in vivo. Conditions: p.o. 30 μg/kg.
Another series has as its system human MCF7-Ca xenografts. Nature of the series: MCF-7Ca xenograft growth in nude mice. It counts as in vivo, mouse. Particulars: 100 μg/kg s.c. daily for 8 weeks.
Series [6] relates to middle-aged OVX Fisher-344 rats. Nature of the series: Delay match-to-sample plus maze test. It counts as in vivo, rat. Particulars: continuous s.c. minipump 4 μg daily, 48 days, versus control.
The target in a further series is ERβ (Homo sapiens, UniProt Q92731). Nature of the series: Estrogen receptor. It counts as binding.
The next series deals with CD1 mice. Nature of the series: Forced swim test. It is filed as in vivo, mouse.
Setting [7] is: 0.8 to 100 μg/kg s.c. 1 h before tMCAO.

Values after ≈ are worked out from the molar mass of the structure shown.

ERβ, sequence (Q92731 whole entry, species assumed): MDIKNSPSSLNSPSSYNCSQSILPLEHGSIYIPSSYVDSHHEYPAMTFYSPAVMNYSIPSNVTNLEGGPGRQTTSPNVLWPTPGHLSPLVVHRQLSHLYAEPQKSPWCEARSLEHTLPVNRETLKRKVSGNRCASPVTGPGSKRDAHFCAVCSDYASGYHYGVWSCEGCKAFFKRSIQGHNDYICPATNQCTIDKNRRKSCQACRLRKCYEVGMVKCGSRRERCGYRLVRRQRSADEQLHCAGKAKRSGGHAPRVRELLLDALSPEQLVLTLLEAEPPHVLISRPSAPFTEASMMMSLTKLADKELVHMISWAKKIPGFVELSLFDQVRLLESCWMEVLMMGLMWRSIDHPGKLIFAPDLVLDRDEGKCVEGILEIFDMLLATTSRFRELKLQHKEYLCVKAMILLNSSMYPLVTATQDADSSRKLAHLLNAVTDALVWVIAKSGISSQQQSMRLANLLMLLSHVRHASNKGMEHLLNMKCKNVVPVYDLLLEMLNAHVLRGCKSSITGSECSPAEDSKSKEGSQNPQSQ

Turning to 16,16,17-d3-DHED, the “Site of labelled E2 formation from deuterated prodrug” value in [1] (OVX Sprague-Dawley rats, i.v., tissue 15 min post-dosing) is listed as “d3-E2 was produced exclusively in the brain”.
For the molecule `C[C@]12CC[C@@H]3c4ccc(O)cc4CC[C@H]3[C@@H]1CC[C@@H]2O` [Compound E2, 17β-estradiol, reference compound], the IC50 with lipid peroxidation [2] (read-out: Inhibition of lipid peroxidation: IC50, TBARS) was found to be 3.9 ± 0.4 µM; in the series with lipid peroxidation [5] (read-out: Inhibition of lipid peroxidation: IC50, FTC), 11.8 ± 1.6 µM. Moreover, the ERα transactivation result in the series on ERα in MCF-7Ca cells was “induced the expected cancer-promoting ERα transactivation”. Besides, in series [3], the “ERE reporter activation / bioluminescence in peripheral tissues” value is “significant increase of photon emission from the hepatic area”. Also, the “Binding to human plasma proteins” value in [4] (average ± SEM, n = 3) is listed as 97.8 ± 0.3%. In the series with uterus of OVX rodents, the “Vaginal smear cytology during and after treatment” value is recorded as “vaginal smears with many cornified cells”.
Turning to `C[C@]12CC[C@H]3[C@@H](CCC4=CC(=O)C=C[C@@]43O)[C@@H]1CC[C@@H]2O` [DHED, 10β,17β-dihydroxyestra-1,4-dien-3-one], in the series on lipid peroxidation [2], the “Inhibition of lipid peroxidation: IC50, TBARS” value is listed as “n.i”. Also, in the series with OVX Sprague-Dawley rats (100 μg/kg s.c. after tMCAO), the “Neuroprotection with post-infarct treatment” value is given as “had a neuroprotective effect”. In the series with OVX Sprague-Dawley rats (setting [7]), the Infarct volume entry is “dose-dependent reduction of the infarct volumes”. Besides, the “Neurological deficits (ND score)” value in the series with OVX Sprague-Dawley rats (setting [7]) is recorded as “attenuation of neurological deficits”. Also, the IC50 at ERα and at ERβ was more than 10 µM in each case. Further, the “ChAT-IR stereological cell counts in medial septum and vertical diagonal band” value in the series on OVX rat brain (OVX Fischer 344 rats, 4 μg/day s.c. pumps, 48 days) was “increased choline acetyltransferase immunoreactive (ChAT-IR) stereological cell counts”. The “Dendritic spines and spine heads in hippocampal CA1 neurons” value in the series on OVX rat brain (OVX Fischer 344 rats, 10 μg s.c. every four days for 40 days) is “increased the number of dendritic spines and spine heads”. Moreover, in the series with OVX rat brain, the “Progesterone receptor (PR) expression in the preoptic area of the hypothalamus” value is “stimulated progesterone receptor (PR) expression”. Also, the “ERE reporter activation / bioluminescence in peripheral tissues” value in series [3] is “did not activate the ERE reporter construct”. Also, the Tail-skin temperature rise result in the series with OVX rat is “blunted the tail-skin temperature rise”. In addition, the “Binding to human plasma proteins” value in series [4] (human) came out at 58.0 ± 0.6%. Besides, the “Growth of aromatase-transfected MCF-7Ca xenografts” value with human MCF7-Ca xenografts was “did not stimulate the growth”. The Working memory errors entry in series [6] is on record as “significantly decreased working memory errors”. Besides, the “Antidepressant-like activity in the FST” value in the series on CD1 mice (10 μg/kg s.c. daily for 5 days, 1 h after last injection) was “outperformed direct administration of E2”. Moreover, the concentration in solution in “physchem” (solubility) was 60.3 ± 1.7 µg/mL (≈ 209 µM). The “Prodrug level in the brain” value in [1] (OVX rats after systemic dosing) is on record as “did not detect DHED in the brain”. Moreover, the Oral absorption result in series [1] (PK studies of E2 in brain and serum, p.o. (table S1)) is “complete absorption after oral administration”. Moreover, the half-life in [1] (female, Sprague-Dawley, rat, serum, iv, 200 ug/kg) was determined as 5.1 ± 0.6 min. Moreover, the “Inhibition of lipid peroxidation: IC50, FTC” value with lipid peroxidation [5] is “n.i”. Also, in the series with uterus of OVX rodents (OVX Swiss-Webster mice, 50 μg/kg s.c. daily for 5 days, versus control), the “Expression of estrogen-regulated uterine proteins” value is recorded as “no changes in the expression”. For the same molecule, in the series on uterus of OVX rodents, the “Vaginal smear cytology during and after treatment” value is listed as “remained continuously in diestrus”. In the series on uterus of OVX rodents (OVX rodents, i.v., s.c., p.o. or 48-day s.c. minipump), the “Wet uterus weight gain (uterotrophic effect)” value was “did not result in wet uterus weight gain”.
For the molecule `C[C@]12CC[C@@H]3c4ccc(O)cc4C[C@@H](CCCCCCCCC[S+]([O-])CCCC(F)(F)C(F)(F)F)[C@H]3[C@@H]1CC[C@@H]2O` (stereo partly shown) [ICI 182,780], the “Progesterone receptor (PR) expression in the preoptic area of the hypothalamus” value in the series on OVX rat brain is on record as “abolished the effect of DHED treatment on PR induction”. Besides, in the series with CD1 mice (4 mg/kg s.c. co-injected with E2 or DHED 50 μg/kg s.c., 5 days), the “Effect of ER antagonist on antidepressant-like effect of E2 and DHED” value was “completely blocked this antidepressant-like effect”. In the series on CD1 mice (15 min after completion of the FST, systemic dosing), the “Brain concentration by LC-MS/MS” value stood at 6.6 ±0.9 ng/g tissue.
In the case of `C[C@]12CCC(=O)C=C1CC[C@@H]1[C@@H]2CC[C@]2(C)C(=O)CC[C@@H]12` [Δ^4A, Δ^4-androstenedione], the ERα transactivation entry in the series with ERα in MCF-7Ca cells is listed as “induced the expected cancer-promoting ERα transactivation”.
